The supplement of paper PMC10307832

Key:
Assay in all cases: relative viability (nuclei count vs DMSO), 5 days (fraction); higher = more cells survive
AZD1208 + Linsitinib = compound: N[C@@H]1CCCN(c2c(/C=C3\SC(=O)NC3=O)cccc2-c2ccccc2)C1 [AZD1208] + C[C@]1(O)C[C@@H](c2nc(-c3ccc4ccc(-c5ccccc5)nc4c3)c3c(N)nccn32)C1 [Linsitinib] (partner 1 µM)
In short: (§1)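 Lung cancer cell lines, seeded in 1536-well plates, were treated the following day by pin tool with a single drug or with five library-drug doses (not always all listed) in √10 steps on top of a fixed anchor-drug dose. Cells were fixed and nuclei stained in one step after 5 days, and nuclei were counted. Relative viability is the nuclei count for treated wells divided by that for vehicle wells, reported as medians of duplicate plates.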

AZD1208 + Dasatinib = compound: N[C@@H]1CCCN(c2c(/C=C3\SC(=O)NC3=O)cccc2-c2ccccc2)C1 [AZD1208] + Cc1nc(Nc2ncc(C(=O)Nc3c(C)cccc3Cl)s2)cc(N2CCN(CCO)CC2)n1 [Dasatinib] (partner 0.075 µM)
In short: as §1

XMD14-99 + Alpelisib = compound: CN1CCN(CC1)C2=CC(=C(C=C2)NC3=NC(=C(S3)C(=O)C4=C(C=CC=C4Cl)Cl)N)OC [XMD14-99] + Cc1nc(NC(=O)N2CCC[C@H]2C(N)=O)sc1-c1ccnc(C(C)(C)C(F)(F)F)c1 [Alpelisib] (partner 2 µM)
In short: as §1

XMD14-99 + Vorinostat = compound: CN1CCN(CC1)C2=CC(=C(C=C2)NC3=NC(=C(S3)C(=O)C4=C(C=CC=C4Cl)Cl)N)OC [XMD14-99] + O=C(CCCCCCC(=O)Nc1ccccc1)NO [Vorinostat] (partner 1 µM)
In short: as §1

How did the relative viability (AZD1208 + Linsitinib; first compound 0.08 µM) turn out when UMC-11 was run?
Its relative viability is 0.909.

And the relative viability (AZD1208 + Linsitinib; first compound 0.253 µM)?
The relative viability was 0.767.

What about the relative viability (AZD1208 + Linsitinib; first compound 0.8 µM) of the same cell line?
Its relative viability is 0.772.

What about the relative viability (AZD1208 + Linsitinib; first compound 2.53 µM) of the same cell line?
Its relative viability is 0.67.

What about the relative viability (AZD1208 + Linsitinib; first compound 8 µM) of the same cell line?
Its relative viability is 0.558.

And the relative viability (AZD1208 + Dasatinib; first compound 0.08 µM)?
Its relative viability is 0.462.

What about the relative viability (AZD1208 + Dasatinib; first compound 0.253 µM) of the same cell line?
The relative viability was 0.469.

What about the relative viability (AZD1208 + Dasatinib; first compound 0.8 µM) of the same cell line?
The relative viability was 0.446.

What about the relative viability (AZD1208 + Dasatinib; first compound 2.53 µM) of the same cell line?
The relative viability was 0.483.

What about the relative viability (AZD1208 + Dasatinib; first compound 8 µM) of the same cell line?
Its relative viability is 0.41.

And the relative viability (XMD14-99 + Alpelisib; first compound 0.08 µM)?
The relative viability was 0.939.

What about the relative viability (XMD14-99 + Alpelisib; first compound 0.8 µM) of the same cell line?
Its relative viability is 1.02.

What about the relative viability (XMD14-99 + Alpelisib; first compound 2.53 µM) of the same cell line?
Its relative viability is 1.01.

What about the relative viability (XMD14-99 + Alpelisib; first compound 8 µM) of the same cell line?
Its relative viability is 0.735.

What about the relative viability (XMD14-99 + Vorinostat; first compound 0.08 µM) of the same cell line?
The relative viability was 0.422.

And the relative viability (XMD14-99 + Vorinostat; first compound 0.8 µM)?
Its relative viability is 0.352.

And the relative viability (XMD14-99 + Vorinostat; first compound 2.53 µM)?
The relative viability was 0.416.

What about the relative viability (XMD14-99 + Vorinostat; first compound 8 µM) of the same cell line?
The relative viability was 0.346.
